Patent publication US20120309821A1, “Use of epigallocatechin-3-gallate for immune regulation” (NATIONAL DEFENSE MEDICAL CENTER, priority 2011, published 2012)

Assays:
Nrf2 = test: Western blot of nuclear Nrf2 in kidney; assay type: in vivo, mouse; details: 120 mg/kg by gavage daily, week 34, compared to disease controls
Description: Female NZB/W F1 mice were purchased from the Animal Center of the National Taiwan University (Taipei, Taiwan, ROC) and, at 12 weeks of age, were divided into two groups, one of which was given normal saline and served as the disease control, while the other was given 120 mg/kg body weight of EGCG (Ryss Lab, Inc., CA, USA) (this dose is a slight modification of those used in previous in vivo studies) by gavage daily till sacrificed at 34-weeks-old. 8-Week-old NZB/W F1 female mice (prior to onset of autoantibody production) were used as normal controls. Urine samples were collected in metabolic cages every 2 weeks and urine protein levels were measured, and serum samples were used to measure serum levels of blood urea nitrogen (BUN) and creatinine (Cr) as described previously (Ka, S. M. et al. Decoy receptor 3 ameliorates an autoimmune crescentic glomerulonephritis model in mice. J Am Soc Nephrol 18:2473-2485; 2007). All animal experiments were performed upon the ethical approval of the Institutional Animal Care and Use Committee of the National Defense Medical Center, Taiwan and according to the ethical rules in the NIH Guide for the Care and Use of Laboratory Animals. […] Antibodies to histone H3 (Cell Signaling) or β-actin (Santa Cruz) were used as internal controls for the nuclear and cytosolic target proteins, respectively.

NF-κB p65 = test: Renal nuclear NF-κB p65 activation ELISA (TransAM); assay type: in vivo, mouse; details: 120 mg/kg by gavage daily; week 34; increase seen in disease control
Description: Female NZB/W F1 mice were purchased from the Animal Center of the National Taiwan University (Taipei, Taiwan, ROC) and, at 12 weeks of age, were divided into two groups, one of which was given normal saline and served as the disease control, while the other was given 120 mg/kg body weight of EGCG (Ryss Lab, Inc., CA, USA) (this dose is a slight modification of those used in previous in vivo studies) by gavage daily till sacrificed at 34-weeks-old. 8-Week-old NZB/W F1 female mice (prior to onset of autoantibody production) were used as normal controls. Urine samples were collected in metabolic cages every 2 weeks and urine protein levels were measured, and serum samples were used to measure serum levels of blood urea nitrogen (BUN) and creatinine (Cr) as described previously (Ka, S. M. et al. Decoy receptor 3 ameliorates an autoimmune crescentic glomerulonephritis model in mice. J Am Soc Nephrol 18:2473-2485; 2007). […]
Nuclear protein from renal cortex was extracted using a Nuclear Extract Kit (Active Motif) according to the manufacturer's instructions and nuclear NF-κB p65 activation quantified using an ELISA-based TransAM NF-κB kit (Active Motif, Tokyo, Japan) according to the manufacturer's protocol by reading the absorbance on an ELISA plate reader (Bio-Tek, VT, USA) at 450 nm with a reference wavelength of 655 nm.

## Epigallocatechin-3-gallate [EGCG]
Nrf2
  Nrf2 translocation into the nucleus: markedly increased
NF-κB p65
  nuclear NF-κB p65 levels (ELISA, renal nuclear protein extracts): significantly inhibited
